The values that follow come from ChEMBL document CHEMBL1127267, “p-Guanidinobenzoyl-[Hyp3, Thi5, D-Tic7, Oic8]bradykinin is almost completely devoid of the agonist effect of HOE140 on the endothelium-free femoral artery of sheep” (Bioorg Med Chem Lett, 1994).

For the experiment, the target named is T1, B2 bradykinin receptor (Homo sapiens, UniProt P30411).
T1 sequence (P30411 whole entry): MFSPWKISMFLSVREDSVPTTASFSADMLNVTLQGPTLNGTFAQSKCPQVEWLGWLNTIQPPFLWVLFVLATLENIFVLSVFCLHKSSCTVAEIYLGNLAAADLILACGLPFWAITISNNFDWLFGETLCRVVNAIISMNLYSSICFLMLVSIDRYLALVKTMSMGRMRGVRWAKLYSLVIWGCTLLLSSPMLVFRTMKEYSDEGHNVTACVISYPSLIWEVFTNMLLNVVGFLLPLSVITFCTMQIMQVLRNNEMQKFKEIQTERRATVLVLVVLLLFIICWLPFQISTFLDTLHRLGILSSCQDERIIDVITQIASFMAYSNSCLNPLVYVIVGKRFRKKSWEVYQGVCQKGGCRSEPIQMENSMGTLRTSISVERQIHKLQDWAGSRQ
The experiment in a line: Antagonist effect against bradykinin B2 receptor was determined in rabbit jugular vein. The class given is functional, tissue-based, Oryctolagus cuniculus. The settings on record: target entry is the homologue from another species; read-out: pA2 (converted).

Square brackets hold non-standard residues; d marks the D form. Peptide text beside a SMILES is read from it. * marks the point of attachment. Benzoyl(4-guanidino) = N=C(N)Nc1ccc(C(=O)*)cc1; Oic = O=C(O)[C@@H]1C[C@@H]2CCCC[C@@H]2N1; Hyp = O=C(O)[C@@H]1C[C@@H](O)CN1; dTic = O=C(O)[C@H]1Cc2ccccc2CN1; 2Thi = N[C@@H](Cc1cccs1)C(=O)O

As for `N=C(N)NCCC[C@H](NC(=O)[C@@H]1C[C@@H]2CCCC[C@@H]2N1C(=O)[C@H]1Cc2ccccc2CN1C(=O)[C@H](CO)NC(=O)[C@H](Cc1cccs1)NC(=O)CNC(=O)[C@@H]1C[C@@H](O)CN1C(=O)[C@@H]1CCCN1C(=O)[C@H](CCCNC(=N)N)NC(=O)c1ccc(NC(=N)N)cc1)C(=O)O` ({Benzoyl(4-guanidino)}-RP[Hyp]G[2Thi]S[dTic][Oic]R-OH), the Kb was 0.263 nM.
